The text below walks through data of publication PMC13081163, “Discovery of a novel Nrf2 activator that modulates mitochondrial function in neurons by regulating DHRS3-Nrf2 interaction after ischemic stroke” (Theranostics, 2026).

Data set [1] has as its system DHRS3. As to the kind of experiment: Western blotting of DHRS3 in SH-SY5Y cells after OGD/R. In kind it is cell-based, human. How it is done:
The western blotting analysis was conducted as we previously described. First, the total protein was extracted using RIRA buffer and then the protein concentrations were determined using the BCA kit (P0012, Beyotime, China). The extraction of mitochondrial proteins was carried out according to the instructions (C3601, Beyotime, China). The samples were separated electrophoretically and then wet-transferred onto 0.2 μm PVDF membranes (88520, Thermo Scientific, USA). After blocking with 5% non-fat dry milk in Tris-buffered saline (TBS) (pH 7.4) containing 0.1% Tween 20 at room temperature for 2 h, the protein membranes were sequentially immersed with the primary antibody at 4 °C overnight and secondary antibody at room temperature for 1 h. Finally, the membranes were quantified using image analysis system.

Data set [2] in a line: Pharmacokinetics in male rats (LC-MS/MS). In kind it is in vivo. The following applies: SD, rat, plasma, iv, 5 mg/kg. The method, then: Male SD rats were intravenous injection with Cpd.51, blood and brain tissues were collected 15 min, 1 h, 4 h, 6 h, 8 h and 24 h after drug administration. Samples were measured by a Shimadzu chromatography system (Shimadzu, Kyoto, Japan) coupled with an AB Sciex triple quadrupole 4500 mass spectrometer (SCIEX Triple Quad™ 4500 LC-MS/MS, Applied Biosystems Sciex, Ontario, Canada) using Analyst 1.4.2 software. A HPLC column (ACQUITY UPLC BEH C18, 2.1 × 50 mm, 1.7 μm) were used. Protein precipitation method was used for detection: 50 μL plasma sample or brain homogenate sample were added with 200 μL acetonitrile containing internal standard for precipitation, then vortexed for 3 min. The supernatant was injected into system for analysis after centrifugation.

For data set [3], the system named is SH-SY5Y cells. The data set can be described thus: Cytotoxicity in SH-SY5Y cells, 24 h incubation. It is filed as cell-based. The following applies: Homo sapiens.
For data set [4], the target named is Nrf2 (Homo sapiens, UniProt Q14145). As to the kind of experiment: Nrf2 nuclear translocation by immunofluorescence. The following applies: 100 nM, SH-SY5Y cells and primary cortical neurons. It is filed as cell-based. The method, then: Immunostaining: cells were fixed with 4% paraformaldehyde for 20 min and then incubated with blocking solution (10% normal goat serum, 0.5% Triton X-100 in PBS) for 1 h at room temperature. Then, the samples were incubated overnight with primary antibodies: anti-Nrf2 (1:200, CST), anti-DHRS3 (1:300, Proteintech), anti-NeuN (1:500, Servicebio). When evaluating the extraction efficiency of primary cortical neurons, we performed co-staining with β-tubulin (1:200, Abcam) and Synaptophysin (1:300, ABclonal). After being washed with PBST three times, the samples were incubated with the corresponding secondary antibodies for 2 h in the dark. The nuclei were stained with DAPI (C1006-200mL, Beyotime, China) for 20 min. Finally, images were captured with a fluorescence microscope. Fluorescence integrated density was measured by ImageJ as previously described.

The target of data set [5] is Keap1 BTB domain fragment (48-149) (Homo sapiens, UniProt Q14145). As to the kind of experiment: SPR binding to truncated Keap1 (48-149). The method, then: The binding affinity of Cpd.51 or Oma to Keap1 proteins were measured using a Biacore T200. The overall experimental procedures were based on previous reports, [28]. Human recombinant Keap1 proteins or truncated form of Keap1 (residues 48-180 and residues 48-149) were captured on a CM5 chip by a standard amine coupling procedure. Binding sensorgrams were recorded by injecting various concentrations of Cpd.51 over the immobilized proteins surface. The dissociation constant was obtained by globally fitting the data (to the 1:1 Langmuir binding model using the Biacore Insight evaluation software (Cytiva, Marlborough, MA, USA). Affinity tests for Cpd.51 and DHRS3 were also performed using the aforementioned method.

Data set [6] is described as follows: In vitro hepatic microsomal stability, overall statement. In kind it is in vitro ADME, human, dog, rat. How it is done: The liver microsomal incubation system comprised human, dog, or rat liver microsomal protein (0.75 mg/mL), nicotinamide adenine dinucleotide phosphate (NADPH) generation system, potassium phosphate buffer (0.1 M, pH 7.4), substrate, and inhibitor. The assay was conducted by first preparing a potassium phosphate buffer. Compounds and liver microsomes were then diluted and pre-incubated at 37 °C before initiating the reaction with NADPH. Aliquots were quenched with acetonitrile containing internal standard at specified time points. After sample processing (shaking and centrifugation), the supernatants were analyzed by LC-MS/MS to determine metabolic stability.

The subject of data set [7] is primary cortical neurons. As to the kind of experiment: OGD/R damage in primary cortical neurons (CCK-8). It is filed as cell-based, rat. How it is done: To mimic ischemic conditions in vitro, cells were washed with PBS and then cultured for 2.5 h at 37 °C in glucose-free medium under anaerobic conditions (5% hydrogen, 90% nitrogen, and 5% carbon dioxide). OGD process was terminated by transferring cells back to normal glucose-containing medium under normoxic conditions (5% CO₂, 37 °C) and maintained for 24 h.
In the administration group, cells were exposed for 12 h with Cpd.51 prior to OGD. OGD lasted for 2.5 h and the reperfusion lasted for 24 h before the experiment was concluded. Subsequently, cell viability was determined using the cell counting kit-8 (CCK-8, C0039, Beyotime, China). In the experiment to explore the treatment time window, the only difference was the timing of the Cpd.51 treatment, while all other procedures remained unchanged.
Rat primary neuronal cells collected from the cerebral cortices of embryos (embryonic day 18) from pregnant SD rats were isolated and cultured. In brief, the cerebral cortex tissue of […] was removed and cut into small pieces using ophthalmic curved shears. The tissue was repeatedly pipetted after the addition of preheated 0.25% Trypsin digestive solution (BR00083, ABclonal, China). Finally, twice the volume of the culture medium was added and terminated the digestion to complete the extraction of primary cortical cells. […]

Nrf2, sequence (Q14145 whole entry): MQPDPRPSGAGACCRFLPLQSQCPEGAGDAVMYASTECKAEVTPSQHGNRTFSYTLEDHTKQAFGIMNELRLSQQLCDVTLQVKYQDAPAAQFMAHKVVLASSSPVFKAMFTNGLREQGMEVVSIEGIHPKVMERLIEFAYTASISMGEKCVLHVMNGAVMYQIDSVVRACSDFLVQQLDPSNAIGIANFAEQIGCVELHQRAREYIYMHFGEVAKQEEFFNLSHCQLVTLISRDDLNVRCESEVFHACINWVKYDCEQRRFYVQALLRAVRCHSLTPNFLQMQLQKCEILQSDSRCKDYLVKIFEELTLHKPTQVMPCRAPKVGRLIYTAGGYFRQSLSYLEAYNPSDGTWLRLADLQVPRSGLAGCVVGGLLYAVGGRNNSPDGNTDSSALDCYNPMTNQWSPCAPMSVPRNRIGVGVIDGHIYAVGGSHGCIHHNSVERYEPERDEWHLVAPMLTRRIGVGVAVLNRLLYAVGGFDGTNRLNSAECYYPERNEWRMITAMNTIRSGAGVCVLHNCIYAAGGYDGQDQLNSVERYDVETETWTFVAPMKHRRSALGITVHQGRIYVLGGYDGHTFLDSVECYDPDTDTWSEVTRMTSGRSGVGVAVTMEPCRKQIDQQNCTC
Nrf2, sequence (Q16236 whole entry, further chain): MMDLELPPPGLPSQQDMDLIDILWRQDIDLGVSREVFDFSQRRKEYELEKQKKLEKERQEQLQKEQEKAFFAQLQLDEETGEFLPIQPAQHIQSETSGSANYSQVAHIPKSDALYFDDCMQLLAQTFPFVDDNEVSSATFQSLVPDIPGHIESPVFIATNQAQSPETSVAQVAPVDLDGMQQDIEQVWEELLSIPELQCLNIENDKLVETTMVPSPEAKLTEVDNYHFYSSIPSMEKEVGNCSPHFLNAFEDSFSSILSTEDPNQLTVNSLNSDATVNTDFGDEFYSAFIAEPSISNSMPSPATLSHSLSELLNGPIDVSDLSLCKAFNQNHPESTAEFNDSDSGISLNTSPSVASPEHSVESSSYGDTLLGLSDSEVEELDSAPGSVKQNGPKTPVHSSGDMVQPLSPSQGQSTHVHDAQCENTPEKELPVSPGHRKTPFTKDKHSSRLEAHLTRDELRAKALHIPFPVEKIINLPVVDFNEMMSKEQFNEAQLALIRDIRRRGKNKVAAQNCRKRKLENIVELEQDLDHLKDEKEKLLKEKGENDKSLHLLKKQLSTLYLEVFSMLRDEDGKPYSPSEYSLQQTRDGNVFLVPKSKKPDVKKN
Keap1 BTB domain fragment (48-149), sequence (Q14145 48-149): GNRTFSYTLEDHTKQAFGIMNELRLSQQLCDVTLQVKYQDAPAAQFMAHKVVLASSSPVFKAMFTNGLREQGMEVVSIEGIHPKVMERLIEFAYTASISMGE

On to `CC1(C)CCC2(C(=O)NO)CCC3(C)C(C(=O)C=C4C5(C)C=C(C#N)C(=O)C(C)(C)C5CCC43C)C2C1` (centres unmarked) [Cpd.51], for which the “DHRS3 protein expression induced by OGD/R” value in data set [1] is “substantially attenuated this induction”. For the same compound, in data set [2], the area under the curve AUC(0-t) came out at 991 ± 70 ng·h/mL, the C0 worked out at 3410 ± 45 ng/mL, the Cmax is 2120 ± 75 ng/mL and the MRT last came to 50.6 ± 3.24 min. In addition, the clearance in data set [2] (i.v., read-out: CL_obs (converted)) was 83.5 mL/min/kg. In addition, in data set [3], the IC50 worked out at 1.98 µM. Moreover, the Nrf2 nuclear translocation entry in data set [4] is “Nrf2 nuclear translocation within 15 min”. This compound came in with a Kd in data set [5] of 67.2 µM. Besides, the “metabolic stability in microsomes” value in data set [6] was “moderate metabolic stability”. Also, the “efficacy in OGD/R-induced primary neuronal damage” value in data set [7] was “excellent efficacy”.
